Data reported in ChEMBL document CHEMBL5058564, “EUbOPEN Chemogenomics Library 2 (Incucyte)” (2022).

Legend:
Assay type in all cases: toxicity, cell-based
Fibroblast = assay: Incucyte cell viability with human fibroblast; conditions: 10 µM, compound concentration 10 uM
U2OS = assay: Incucyte cell viability with U2OS; conditions: human, 10 µM, compound concentration 10 uM
HEK-293T = assay: Incucyte cell viability with HEK293T; conditions: human, 10 µM, compound concentration 10 uM
[1] = 0 h, replicate number 1, timepoint 0 hours
[2] = 0 h, replicate number 2, timepoint 0 hours
[3] = 6 h, replicate number 1, timepoint 6 hours
[4] = 12 h, replicate number 1, timepoint 12 hours
[5] = 18 h, replicate number 1, timepoint 18 hours
[6] = 18 h, replicate number 2, timepoint 18 hours
[7] = 24 h, replicate number 1, timepoint 24 hours
[8] = 6 h, replicate number 2, timepoint 6 hours
[9] = 12 h, replicate number 2, timepoint 12 hours
[10] = 24 h, replicate number 2, timepoint 24 hours
Also: unitless GR value; below 1 slowed growth and below 0 cell loss.

SMILES	Growth Rate (Fibroblast; [1])	Growth Rate (Fibroblast; [2])	Growth Rate (Fibroblast; [3])	Growth Rate (Fibroblast; [4])	Growth Rate (Fibroblast; [5])	Growth Rate (Fibroblast; [6])	Growth Rate (Fibroblast; [7])	Growth Rate (U2OS; [2])	Growth Rate (U2OS; [5])	Growth Rate (HEK-293T; [1])	Growth Rate (HEK-293T; [2])	Growth Rate (Fibroblast; [9])	Growth Rate (U2OS; [3])	Growth Rate (U2OS; [4])	Growth Rate (U2OS; [6])	Growth Rate (U2OS; [7])	Growth Rate (HEK-293T; [3])	Growth Rate (HEK-293T; [5])	Growth Rate (HEK-293T; [7])	Growth Rate (Fibroblast; [10])	other results
Cc1cc(Cn2nnc3c(-c4ccco4)nc(N)nc32)ccc1N [VIPADENANT]	0.03	0.35	0.45	0.08	0.23	0.81	0.17	-1	0.79	0.37	0.5	–	–	–	–	–	–	–	–	–	Growth Rate (HEK-293T; [8]): 0.84; Growth Rate (HEK-293T; [9]): 0.95
COc1ccc(C(=O)N2CCN(C(=O)/C=C/c3ccc(Br)cc3)CC2)cc1	–	0.76	-0.51	0.15	0.44	0.79	0.08	–	0.64	–	–	0.95	-0.38	0.8	0.63	0.88	0.09	–	–	–	Growth Rate (U2OS; [8]): 0.66; Growth Rate (U2OS; [9]): 0.72; Growth Rate (U2OS; [10]): 0.73
CC(C)NCC(O)COc1cccc2[nH]ccc12 (centres undefined) [PINDOLOL]	0.32	-0.46	–	0.78	0.94	–	0.9	0.98	0.88	–	-0.05	–	0.52	0.93	–	0.7	0.7	0.97	0.82	–	Growth Rate (U2OS; [1]): -0.36; Growth Rate (HEK-293T; [6]): 0.94; Growth Rate (HEK-293T; [10]): 0.98
CC(C)(C)c1ccc(CSc2cnn(C(C)(C)C)c(=O)c2Cl)cc1 [PYRIDABEN]	–	-0.26	-0.33	-0.26	-0.13	0.71	-0.12	-1	0.62	0.63	0.94	0.81	–	–	0.92	0.86	-0.14	0.13	0.1	0.08	Growth Rate (Fibroblast; [8]): 0.56; Growth Rate (U2OS; [10]): 0.96; Growth Rate (HEK-293T; [8]): -0.1; Growth Rate (HEK-293T; [4]): 0.01; Growth Rate (HEK-293T; [9]): -0.01; Growth Rate (HEK-293T; [6]): 0.2; Growth Rate (HEK-293T; [10]): 0.22
CN(C)C(=O)Cn1cc(-c2ccc(-c3nnc4ccccn34)cc2)cn1	0.68	0.31	–	0.37	0.8	0.91	0.56	0.08	0.79	0.69	–	0.94	0.68	0.46	0.91	0.83	0.7	0.88	0.78	0.74	Growth Rate (U2OS; [1]): -0.47; Growth Rate (HEK-293T; [4]): 0.74
CCCCNNC(=O)c1ccc(Br)cc1	0.73	0.26	-0.07	0.37	0.74	0.93	0.99	-0.23	0.94	0.97	0.79	–	–	–	–	–	–	–	–	0.91	Growth Rate (Fibroblast; [8]): 0.86; Growth Rate (U2OS; [9]): 0.99; Growth Rate (U2OS; [10]): 0.91; Growth Rate (HEK-293T; [4]): 0.93; Growth Rate (HEK-293T; [9]): 0.77
C[C@H](N)Cn1ccc2cc(F)c(Cl)cc21.O=C(O)/C=C/C(=O)O	–	–	0.43	0.49	0.6	0.9	0.6	0.24	0.92	–	–	0.81	0.36	0.57	–	0.91	0.52	0.67	0.66	0.79	Growth Rate (Fibroblast; [8]): 0.72; Growth Rate (U2OS; [1]): -0.71; Growth Rate (U2OS; [8]): 0.68; Growth Rate (HEK-293T; [4]): 0.55
O=C(N[C@@H]1CC[C@@H](c2cccc(F)c2F)CN(CC(F)(F)F)C1=O)N1CCC(n2c(=O)[nH]c3ncccc32)CC1 [TELCAGEPANT]	–	0.95	0.18	0.01	0.11	0.66	0.22	-1	–	–	–	0.39	0.8	–	0.98	0.86	0.32	0.54	0.81	0.72	Growth Rate (Fibroblast; [8]): -0.28; Growth Rate (U2OS; [10]): 0.95; Growth Rate (HEK-293T; [8]): 0.77; Growth Rate (HEK-293T; [4]): 0.66; Growth Rate (HEK-293T; [9]): 0.94; Growth Rate (HEK-293T; [6]): 0.98
CN(C)c1ccnc2sc3c(=O)n(N4CCCCCC4)cnc3c12	–	–	-0.22	-0.14	-0.36	0.11	-0.42	-1	0.51	0.91	0.47	0.1	0.61	0.54	0.91	0.78	–	–	–	-0.22	Growth Rate (HEK-293T; [8]): 0.98
COc1cc2nc(N(C)CCCNC(=O)C3CCCO3)nc(N)c2cc1OC.Cl (centres undefined) [ALFUZOSIN HYDROCHLORIDE]	0.72	0.06	–	–	–	0.61	0.72	–	0.72	0.21	0.19	0.51	0.24	0.43	0.93	0.81	0.54	0.99	0.99	0.47	Growth Rate (Fibroblast; [8]): 0.11; Growth Rate (U2OS; [1]): -0.55; Growth Rate (U2OS; [8]): 0.85; Growth Rate (U2OS; [9]): 0.97; Growth Rate (HEK-293T; [10]): 0.96
